{"source": "paper PMC5984089", "about": "“FBXW7 regulates DISC1 stability via the ubiquitin-proteosome system” (Molecular Psychiatry, 2017)", "tested_on": "DISC1, neural progenitors derived from control subjects", "test": "DISC1 protein level in control iPS-derived neural progenitors, western blot", "type": "cell-based, human", "details": "MG132 10 µM, day 18, up to 3 hours, n=2, western blot", "excerpt": "All iPS derived neural progenitors were provided by Pfizer Neuroscience (Cambridge, MA, USA). The iPS cell lines D2 and D3 and family control cell line C1 were generated using a non-integrated approach by Dr Hongjun Song at Johns Hopkins University and cultured as described previously.[8] The Detroit iPS cell line was generated by Dr S. Engle at Pfizer Neuroscience. Detroit 551 fibroblasts were obtained from ATCC (CCL-110) and maintained in Knockout DMEM (Life Technologies 10829-018), 15% FBS (Life Technologies), 1x Non-essential amino acids (Life Technologies 11140-050), 2 mM L-glutamine (Life Technologies 25030-081), 1x Gentamicin (Life Technologies 15710-072), 0.1 mM β-mercaptoethanol (Sigma M-7522). The cells were reprogrammed with individual lentiviruses expressing c-MYC, KLF4, SOX2, OCT3/4, NANOG, and LIN28. One colony, Detroit 551-3, with ES-like morphology, high expression of pluripotency markers (for example, OCT3/4, TRA-1-60, TRA-1-81, SSEA4), a normal karyotype, […] the ability to form all three germ layers in a teratoma assay was used in all subsequent experiments. […]", "note": "Residues, ends and D or L forms follow the SMILES beside them. *: point of attachment. Cbz = O=C(OCc1ccccc1)*"}
{"smiles": "CC(C)C[C@@H](C=O)NC(=O)[C@H](CC(C)C)NC(=O)[C@H](CC(C)C)NC(=O)OCc1ccccc1", "note": "[MG132] (Cbz-Leu-Leu-Leu-aldehyde)", "values": [{"measurement": "DISC1 protein level in NPs from Detroit (control) iPS cells, proteasomal inhibition", "result": "stabilization of DISC1 protein levels within first 30 min up to 3 hours"}]}
